Assay results: PMC10835127, “Viruses traverse the human proteome through peptide interfaces that can be biomimetically leveraged for drug discovery” (Proceedings of the National Academy of Sciences of the …, 2024)
Read-outs that look alike come from different tables or passages of the source.

Columns and labels:
[1] = test system: HCV replicon; type: cell-based; details: normalized mean of HCV replicon readout
[2] = test system: EBV; details: for EBV Norm MEAN: normalized mean of EBV replication readout
[3] = test system: HIV1 strain NL4-3; type: cell-based; details: normalized mean of HIV1 replication readout
[4] = test system: influenza A H1N1 virus; details: 48 hr post-treatment, A549
[5] = test system: F. novicida (strain U112); type: cell-based

Substance	HCV Norm MEAN [1]	EBV Norm MEAN [2]	HIV1 Norm MEAN [3]	Neuraminidase activity normalized to vehicle ([4]; 200 µM peptide)	Neuraminidase activity normalized to vehicle ([4]; 0,823 µM peptide)	Neuraminidase activity normalized to vehicle ([4]; 22,2 µM peptide)	Neuraminidase activity normalized to vehicle ([4]; 2,4691 µM peptide)	Neuraminidase activity normalized to vehicle ([4]; 7,4074 µM peptide)	Neuraminidase activity normalized to vehicle ([4]; 66,6667 µM peptide)	Francisella novicida Norm AUC [5]	HCV Norm MEAN ([1]; peptide screen)	EBV Norm MEAN ([2]; peptide screen)	HIV1 Norm MEAN ([3]; peptide screen)	enhancement of EBV signal ([2]; 20 µM peptide, Hone-1 cells, 48 h)	inhibition of PI incorporation in F. novicida infected BMDMs (in words) [5]
RHFPRIW [CPEP146]	0.2243	1.3564	0.9815	0,7481	0,8163	0,8498	0,7842	0,7775	0,9221	1.892					
SEKHFRETEV [CPEP106]	1.4	1.282	0.4711	1,1108	0,9396	1,0803	0,9387	1,0552	1,1055	0.8616					
GHRMAWDMMMNWSP [CPEP107]				0,108	0,7424	0,9099	0,9047	0,8224	0,2891	0.9779	0.9584	0.9961	1.4249		
GGLEPLSEKHFRETEV [CPEP112]				1,0677	1,0673	1,1545	1,0388	1,1047	1,0264	1.082	0.3447	0.8103	0.2121		
LNSLF [CPEP143]	0.2751	1.147	0.7905	0,8484	0,6928	0,8423	0,7636	0,8039	0,8807	1.175					
CPEP71: viral library peptide from HIV1 Integrase, targets IPO7 (WKGPAKLLWKG)	0.4108	2.918	1.077	0,1137	0,7606	1,0288	1,0227	0,9266	0,9918	1.748				more than 2 fold	
CPEP83: peptide of the viral peptide library; sequence page not shown (LHGLSAFSLHSYS)	0.4141	0.5883	3.012	0,249	0,6779	0,9424	0,9223	0,934	0,7894	1.204					
RRKAK [CPEP70]	0.1385	1.652	3.517	1,0392	0,9822	0,9863	0,9261	0,9473	1,0254	0.442					
CPEP102: peptide of the viral peptide library; sequence page not shown (PHGPVQLSYYD)	0.8145	1.648	1.958	0,8099	0,6759	0,942	1,0283	0,877	1,0125	0.8816					
MSSDLRLTLLELVRRL [CPEP66]				1,1231	1,0081	1,2015	1,0026	1,0851	1,0904	1.55	1.3108	1.239	8.878		
RRRETQV [CPEP148]	0.1353	1.54	0.7674	0,7433	0,8071	0,8272	0,7477	0,8788	0,7757	0.7414					
CPEP142: peptide of the viral peptide library; sequence page not shown (LGIVCPICSQKP)	0.308	1.863	0.603	0,8923	0,9385	0,9689	0,9538	0,9445	1,085	1.819					
WRHRAR [CPEP113]	0.1192	1.761	0.4362	0,9723	0,965	0,979	0,9338	0,9116	1,0465	0.358					most
ARARALARGAGPANSV [CPEP47]				1,0179	1,0745	1,1923	1,0399	1,1089	1,0424	0.949	1.1445	1.295	2.79		
IQIGNHNAM [CPEP67]	0.7713	1.399	4.672	0,0404	0,9632	0,5849	0,8279	0,768	0,4017	0.7313					
LEDLL [CPEP131]	0.1994	1.433	2.616	1,0859	1,0236	1,0471	1,0486	0,9867	1,1075	1.169					
